This note sets out measurements from patent US10189853B2, “Conformationally restricted 4-substituted-2,6-dimethylfuro[2,3-d]pyrimidines as anti-tumor agents” (DUQUESNE UNIVERSITY OF THE HOLY SPIRIT, priority 2014, dated 2019).

The subject of one assay is HCT-116. Briefly: NCI 60 cell line panel. The assay is classed as cell-based. The conditions noted are these: Homo sapiens, Colon Cancer.
Assay [1] deals with WTβ3 cells (HeLa overexpressing βIII tubulin). Kind of assay: Antiproliferative SRB assay. Type of assay: cell-based. The conditions noted are these: for IC50: Homo sapiens, HeLa, SRB, 48 h, read-out: IC50 ± SD in WTβ3.
For assay [2], the system named is colchicine site on tubulin. Briefly: Inhibition of [3H]colchicine binding.
Another assay relates to SF-295. Kind of assay: NCI 60 cell line panel. Type of assay: cell-based. The settings on record: Homo sapiens, CNS Cancer.
For a further assay, the system named is NCI-H322M. Briefly: NCI 60 cell line panel. Type of assay: cell-based. The settings on record: Homo sapiens, NSCLC.
Another assay deals with HeLa cells. Briefly: Antiproliferative SRB assay. The settings on record: Homo sapiens, HeLa, 48 h, read-out: IC50 ± SD in HeLa. Type of assay: cell-based.
A further assay has as its system NCI-H522. Briefly: NCI 60 cell line panel. Type of assay: cell-based. The settings on record: Homo sapiens, NSCLC.
The test system of another assay is HS 578T. Kind of assay: NCI 60 cell line panel. Type of assay: cell-based. The conditions noted are these: Homo sapiens, Breast Cancer.
The subject of the next assay is RPMI-8226. Briefly: NCI 60 cell line panel. The conditions noted are these: Homo sapiens, Leukemia. Type of assay: cell-based.
The next assay concerns SK-MEL-2. Briefly: NCI 60 cell line panel. The conditions noted are these: Homo sapiens. Type of assay: cell-based.
The next assay deals with A498. Kind of assay: NCI 60 cell line panel. The assay is classed as cell-based. The settings on record: Homo sapiens, Renal Cancer.
The next assay relates to MOLT-4. Briefly: NCI 60 cell line panel. The assay is classed as cell-based. The settings on record: Homo sapiens, Leukemia.
The test system of another assay is SK-MEL-28. Briefly: NCI 60 cell line panel. The assay is classed as cell-based. The conditions noted are these: Homo sapiens, Melanoma.
The subject of another assay is A549/ATCC. Briefly: NCI 60 cell line panel. Type of assay: cell-based. The conditions noted are these: Homo sapiens, NSCLC.
Another assay has as its system MALME-3M. Briefly: NCI 60 cell line panel. The assay is classed as cell-based. The settings on record: Homo sapiens, Melanoma.
Another assay concerns SR. Kind of assay: NCI 60 cell line panel. The assay is classed as cell-based. The settings on record: Homo sapiens, Leukemia.
Assay [3] concerns M6/6 cells (SK-OV-3 expressing Pgp). Briefly: Antiproliferative SRB assay. The conditions noted are these: M6/6 (Pgp) vs SKOV3.
For a further assay, the target named is PDGFR-β (Homo sapiens (Human), UniProt P09619). Briefly: PDGFR-β kinase inhibition, phosphotyrosine ELISA cytoblot. The assay is classed as cell-based.
PDGFR-β, sequence (P09619 33-1106): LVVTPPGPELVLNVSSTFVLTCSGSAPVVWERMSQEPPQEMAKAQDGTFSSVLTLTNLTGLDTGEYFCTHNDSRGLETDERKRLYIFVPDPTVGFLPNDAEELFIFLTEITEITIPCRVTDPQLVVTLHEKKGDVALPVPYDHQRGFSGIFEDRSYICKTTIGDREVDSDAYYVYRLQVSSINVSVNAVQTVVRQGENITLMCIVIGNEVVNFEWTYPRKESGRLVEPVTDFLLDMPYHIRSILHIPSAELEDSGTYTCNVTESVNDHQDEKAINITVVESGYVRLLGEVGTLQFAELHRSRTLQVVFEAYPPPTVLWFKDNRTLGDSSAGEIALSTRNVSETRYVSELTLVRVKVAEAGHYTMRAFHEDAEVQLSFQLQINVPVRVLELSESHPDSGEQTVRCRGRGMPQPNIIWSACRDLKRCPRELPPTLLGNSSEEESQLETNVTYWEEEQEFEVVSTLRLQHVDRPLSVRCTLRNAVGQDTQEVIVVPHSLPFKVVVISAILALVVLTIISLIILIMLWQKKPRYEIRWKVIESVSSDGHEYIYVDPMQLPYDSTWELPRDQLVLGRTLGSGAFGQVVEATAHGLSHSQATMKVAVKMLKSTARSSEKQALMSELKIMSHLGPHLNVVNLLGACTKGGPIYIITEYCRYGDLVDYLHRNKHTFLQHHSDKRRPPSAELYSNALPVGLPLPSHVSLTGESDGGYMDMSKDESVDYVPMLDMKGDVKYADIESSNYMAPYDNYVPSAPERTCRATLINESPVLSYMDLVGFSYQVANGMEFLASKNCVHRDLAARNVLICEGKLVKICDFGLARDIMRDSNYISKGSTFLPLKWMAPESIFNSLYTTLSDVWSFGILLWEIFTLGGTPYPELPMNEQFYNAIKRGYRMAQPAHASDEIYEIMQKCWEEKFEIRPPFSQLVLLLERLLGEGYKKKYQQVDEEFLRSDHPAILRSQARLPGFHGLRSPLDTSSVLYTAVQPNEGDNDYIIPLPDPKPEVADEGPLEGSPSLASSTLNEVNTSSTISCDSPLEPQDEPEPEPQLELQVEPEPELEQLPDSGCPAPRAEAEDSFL

A value given as a limit tells only on which side of the number the result lay.

Protocol for PDGFR-β: Cells used were tumor cell lines naturally expressing high levels of EGFR (A431), VEGFR-2 (U251), and PDGFR-β (SH-SYSY). […] The reaction was stopped and cells were permeabilized by quickly removing the media from the cells and adding ice-cold Tris-buffered saline (TBS) containing 0.05% Triton X-100, protease inhibitor cocktail and tyrosine phosphatase inhibitor cocktail. The TBS solution was then removed and cells fixed to the plate for 30 min at 60° C. and further incubation in 70% ethanol for an additional 30 min. Cells were further exposed to block (TBS with 1% BSA) for 1 h, washed, and then a horseradish peroxidase (HRP)-conjugated phosphotyrosine (PY) antibody was added overnight.

For the compound `COc1ccc2c(c1)CCCN2c1nc(C)nc2oc(C)cc12` [Compound 10, 4-(6-methoxy-3,4-dihydroquinolin-1(2H)-yl)-2,6-dimethylfuro[2,3-d]pyrimidine], the GI50 in the assay on HCT-116, in the assay on SF-295, with NCI-H322M, with NCI-H522, in the assay on HS 578T and in the assay with RPMI-8226 was under 10 nM throughout. The GI50 in the assay with SK-MEL-2 is under 10 nM; in the assay with A498 it was under 10 nM; in the assay with MOLT-4, 15 nM; in the assay on SK-MEL-28, under 10 nM; in the assay with A549/ATCC, under 10 nM; with MALME-3M, under 10 nM. Also, the 50% inhibitory concentration (IC50) in assay [1] was found to be 9.1 ± 1.8 nM; in the assay with HeLa cells, 13.5 ± 0.5 nM. Besides, the “Inhibition of colchicine binding % inhibition ± SD” value is on record as 82 ± 3% in assay [2] (1 μM) and 96 ± 1% in [2] (5 μM).
`Cc1nc(N(C)c2ccc3occc3c2)c2cc(C)oc2n1` [Compound 7, N-1-benzofuran-5-yl-N,2,6-trimethylfuro[2,3-d]pyrimidin-4-amine]: the 50% growth inhibitory concentration (GI50) in the assay with HCT-116 came out at 77.1 nM; in the assay with SF-295, 41.7 nM; in the assay on SR, 62.4 nM; in the assay on NCI-H522 it was 29.9 nM; in the assay with HS 578T, 51.7 nM; in the assay on SK-MEL-2, 82.4 nM. It took 211 nM to inhibit growth in the assay on MOLT-4 by half (GI50). The IC50 is 243 ± 15.1 nM in assay [1]; 302 ± 23.4 nM in the assay on HeLa cells; 25 ± 4.8 nM against PDGFR-β (SH-SY5Y cells, phosphotyrosine ELISA). In addition, the “Rr value (relative resistance)” value worked out at 0.8 in [1] (WTβ3 vs HeLa) and 1.2 in assay [3]. In addition, the “fold better than sunitinib, PDGFR-β” value at PDGFR-β (vs sunitinib) is listed as “about 4 fold”.
